Here are results for 25 compounds from patent EP0970046B1, “N-HYDROXY-2-(ALKYL, ARYL, OR HETEROARYL SULFANYL, SULFINYL OR SULFONYL)-3-SUBSTITUTED ALKYL, ARYL OR HETEROARYLAMIDES AS MATRIX METALLOPROTEINASE INHIBITORS” (Wyeth Holdings Corporation, priority 1997, dated 1998).

Structures are written as SMILES. Counter-ions that a name gives are not always drawn. Like-named read-outs stand apart in the source and are kept apart here.

Assay type in all cases: biochemical
One assay addresses T1, TACE (Homo sapiens, UniProt P78536).
T1 construct: purchased Immunex
The assay can be described thus: Procedure for Measuring TACE Inhibition. The settings on record: for IC50: read-out: TACE IC 50; for inhibition at 1 µM: read-out: TACE % inhibition at 1 micromolar. Put shortly:
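Single-concentration screen: test compound at 1 µM final, 10-min room-temperature preincubation with 1 µg/mL protease in Tris pH 7.4 buffer containing glycerol. Initial rate from linear fluorescence increase (340/420 nm) over 10 min after adding 100 µM peptidyl substrate; significance versus control rate by Dunnett's test.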

In the next assay the target is T2, MMP 9 (Homo sapiens, UniProt P14780).
T2 construct: from tissue; host or cells: human neutrophils
T2 sequence (P14780 94-707): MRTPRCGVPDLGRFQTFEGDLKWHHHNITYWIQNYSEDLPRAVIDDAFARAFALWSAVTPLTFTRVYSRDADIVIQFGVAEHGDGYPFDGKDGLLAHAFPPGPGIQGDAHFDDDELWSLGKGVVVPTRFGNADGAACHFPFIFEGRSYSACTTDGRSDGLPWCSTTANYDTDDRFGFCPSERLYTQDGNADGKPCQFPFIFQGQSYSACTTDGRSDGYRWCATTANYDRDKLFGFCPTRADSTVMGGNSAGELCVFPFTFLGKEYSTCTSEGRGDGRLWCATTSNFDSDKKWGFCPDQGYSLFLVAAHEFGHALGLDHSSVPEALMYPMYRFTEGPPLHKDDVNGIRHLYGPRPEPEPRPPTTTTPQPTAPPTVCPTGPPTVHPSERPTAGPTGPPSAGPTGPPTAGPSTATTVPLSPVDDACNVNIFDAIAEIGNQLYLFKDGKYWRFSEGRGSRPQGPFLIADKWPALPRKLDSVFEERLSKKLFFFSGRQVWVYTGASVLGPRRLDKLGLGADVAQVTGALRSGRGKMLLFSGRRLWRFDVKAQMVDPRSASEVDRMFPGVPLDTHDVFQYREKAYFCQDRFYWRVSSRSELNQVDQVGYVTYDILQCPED
The assay can be described thus: In Vitro Gelatinase Assay. The settings on record: for inhibition at 1 µM: read-out: MMP 9 % inhibition at 1 micromolar, 1 micromolar; for IC50: read-out: MMP 9 IC 50. How it is done: The assay is based on the cleavage of the thiopeptide substrate ((Ac-Pro-Leu-Gly(2 mercapto-4 methyl-pentanoyl)-Leu-Gly-OEt), Bachem Bioscience) by the enzyme, gelatinase, releasing the substrate product which reacts colorimetrically with DTNB ((5,5'-dithio-bis(2-nitro-benzoic acid)). The enzyme activity is measured by the rate of the color increase. The thiopeptide substrate is made up fresh as a 20 mM stock in 100% DMSO and the DTNB is dissolved in 100% DMSO as a 100 mM stock and stored in dark at room temperature. Both the substrate and DTNB are diluted together to 1 mM with substrate buffer (50 mM HEPES pH 7.5, 5 mM CaCl2) before use. […] The increase in OD405 is plotted and the slope of the line is calculated which represents the reaction rate. The linearity of the reaction rate is confirmed (r^2 >0.85). The mean (x ± sem) of the control rate is calculated and compared for statistical significance (p <0.05) with drug-treated rates using Dunnett's multiple comparison test.

The target in the next assay is T3, MMP 1 (Homo sapiens, UniProt P03956).
T3 construct: human recombinant fibroblast collagenase (truncated, mw= 18,828, WAR, Radnor)
T3 sequence (P03956 100-269 limits assumed): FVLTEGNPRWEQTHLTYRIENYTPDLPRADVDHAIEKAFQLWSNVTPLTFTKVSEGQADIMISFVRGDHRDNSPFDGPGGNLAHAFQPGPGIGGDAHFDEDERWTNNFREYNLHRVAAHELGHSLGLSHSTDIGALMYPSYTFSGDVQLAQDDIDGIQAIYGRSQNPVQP
Briefly: In Vitro Collagenase Assay. The settings on record: for IC50: read-out: MMP 1 IC 50; for inhibition at 1 µM: read-out: MMP 1 % inhibition at 1 micromolar, 1 micromolar. As to the method:
The assay is based on the cleavage of a peptide substrate ((Dnp-Pro-Cha-Gly-Cys(Me)-His-Ala-Lys(NMa)-NH2), Peptide International, Inc.) by collagenase releasing the fluorescent NMa group which is quantitated on the fluorometer. Dnp quenches the NMa fluorescence in the intact substrate. […] Substrate is dissolved in methanol and stored frozen in 1 mM aliquots. […] For the assay, substrate is dissolved in HCBC buffer to a final concentration of 10 µM and collagenase to a final concentration of 5 nM. Compounds are dissolved in methanol, DMSO, or HCBC. The methanol and DMSO are diluted in HCBC to < 1.0%. Compounds are added to the 96 well plate containing enzyme and the reaction is started by the addition of substrate.
The slope of the line is calculated and represents the reaction rate.
The linearity of the reaction rate is confirmed (r^2 >0.85). The mean (x ± sem) of the control rate is calculated and compared for statistical significance (p <0.05) with drug-treated rates using Dunnett's multiple comparison test.

A further assay deals with MMP 13 (Homo sapiens, UniProt P45452). Briefly: MMP 13 inhibition (IC50 / manual assay; method not described). The following applies: read-out: MMP 13 IC 50.
[1] abbreviates: human recombinant fibroblast collagenase.

T1 sequence (P78536 215-824): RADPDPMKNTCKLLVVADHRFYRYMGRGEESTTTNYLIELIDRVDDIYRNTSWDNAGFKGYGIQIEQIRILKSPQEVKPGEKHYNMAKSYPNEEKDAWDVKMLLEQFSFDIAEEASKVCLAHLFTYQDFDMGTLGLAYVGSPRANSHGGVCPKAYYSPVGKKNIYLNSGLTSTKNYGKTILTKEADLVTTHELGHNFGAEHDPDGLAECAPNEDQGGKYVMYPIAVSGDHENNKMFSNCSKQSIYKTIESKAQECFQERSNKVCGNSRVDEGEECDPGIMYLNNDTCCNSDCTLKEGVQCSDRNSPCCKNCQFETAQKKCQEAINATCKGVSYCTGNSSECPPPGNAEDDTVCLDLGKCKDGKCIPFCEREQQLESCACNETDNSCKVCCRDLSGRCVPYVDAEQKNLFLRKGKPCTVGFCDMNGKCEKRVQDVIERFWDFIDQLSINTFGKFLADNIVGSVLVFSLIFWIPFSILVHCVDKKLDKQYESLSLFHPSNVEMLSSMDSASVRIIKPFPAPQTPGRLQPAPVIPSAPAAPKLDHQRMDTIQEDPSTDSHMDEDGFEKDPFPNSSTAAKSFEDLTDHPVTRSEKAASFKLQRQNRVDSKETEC

As for `CCCCC(Cc1cccnc1)(C(=O)NO)S(=O)(=O)c1ccc(OC)cc1` (stereo not drawn) [Example 70, 2-(4-Methoxy-benzenesulfonyl)-2-pyridin-3-ylmethyl-hexanoic acid hydroxyamide], the IC50 on TACE stood at 764 nM. Moreover, on MMP 9 (human neutrophil gelatinase B), the inhibition (as a rule, the percentage by which the read-out fell short of the control) at 1 µM stood at 88.8%.

Take `COc1ccc(S(=O)(=O)C(C)(Cc2ccc3ccccc3c2)C(=O)NO)cc1` (stereo not drawn) [Example 52, N-hydroxy-2-(4-methoxy-benzenesulfonyl)-2-methyl-3-naphthalen-2-yl-propionamide]: the IC50 on MMP 9 (human neutrophil gelatinase B) was 7.9 nM; at MMP 1 (setting [1]) it was 139 nM.

`C#CCC(CC#C)(C(=O)NO)S(=O)(=O)c1ccc(OC)cc1` [Example 73, 2-(4-Methoxy-benzenesulfonyl)-2-prop-2-ynyl-pent-4-ynoic acid hydroxyamide]: the inhibition at 1 µM on TACE stood at 20.2%. For the same compound, the IC50 on MMP 1 (setting [1]) was found to be 300 nM.

Consider `COc1ccc(S(=O)(=O)C(Cc2ccccc2)(Cc2ccccc2)C(=O)NO)cc1` [Example 60, 2-benzyl-N-hydroxy-2-(4-methoxy-benzenesulfonyl)-3-phenyl-propionamide], for which, at TACE, the inhibition at 1 µM was determined as 23.6%. The IC50 on MMP 9 (human neutrophil gelatinase B) amounted to 184 nM.

With `CCCCOc1ccc(S(=O)(=O)C2(C(=O)NO)CCN(CCOc3ccccc3)CC2)cc1` [Example 108, 4-(4-n-Butoxy-benzenesulfonyl)-1-(2-phenoxy-ethyl)-piperidine-4-carboxylic acid hydroxyamide], the values for the IC50 at TACE, at MMP 9 (human neutrophil gelatinase B) and on MMP 1 (setting [1]) were 270 nM, 5.4 nM and 2900 nM, respectively.

As to `COc1ccc(S(=O)(=O)C(C)(Cc2ccc(-c3ccccc3)cc2)C(=O)NO)cc1` (stereo not drawn) [Example 14, 3-(Biphenyl-4-yl)-N-hydroxy-2-(4-methoxy-benzenesulfonyl)-2-methyl-propionamide], at TACE, the inhibition at 1 µM was determined as 17.2%. Moreover, the values for the IC50 on MMP 9 (human neutrophil gelatinase B) and at MMP 1 (setting [1]) were 23 nM and 158 nM, respectively.

`CCCCN1CCC(C(=O)NO)(S(=O)(=O)c2ccc(OC)cc2)CC1` [Example 93, 1-Butyl-4-(4-methoxy-benzenesulfonyl)-piperidine-4-carboxylic acid hydroxyamide]: the inhibition at 1 µM at TACE was 15.8%; on MMP 1 (setting [1]) it was 56.3%.

`COc1ccc(S(=O)(=O)C2(C(=O)NO)CCN(CCCc3ccccc3)CC2)cc1` [Example 91, 4-(4-methoxy-benzenesulfonyl)-1-(3-phenyl-propyl)-piperidine-4-carboxylic acid hydroxyamide]: the results for the IC50 at TACE, on MMP 9 (human neutrophil gelatinase B) and on MMP 1 (setting [1]) were 503 nM, 13.3 nM and 1930 nM, respectively.

On to `CCCC(CCC)(C(=O)NO)S(=O)(=O)c1ccc(OC)cc1` [Example 59, 2-(4-methoxy-benzenesulfonyl)-2-propyl-pentanoic acid hydroxyamide], for which the inhibition at 1 µM was found to be 24.9% at TACE and 30.2% at MMP 1 (setting [1]).

In the case of `COc1ccc(S(=O)(=O)C(C)(Cc2ccccc2)C(=O)NO)cc1` (stereo not drawn) [Example 12, N-Hydroxy-2-(4-methoxy-benzenesulfonyl)-2-methyl-3-phenyl-propionamide], the inhibition at 1 µM at TACE was 15.5%. Moreover, at MMP 1 (setting [1]), the IC50 amounted to 100 nM.

In the case of `CCCCOc1ccc(S(=O)(=O)C2(C(=O)NO)CCN(Cc3ccccc3)CC2)cc1` [Example 98, 1-Benzyl-4-(4-butoxy-benzenesulfonyl)-piperidine-4-carboxylic acid hydroxyamide], the IC50 on MMP 13 stood at 1.2 nM.

As to `COc1ccc(S(=O)(=O)C(C)(Cc2ccc(OCCN3CCOCC3)cc2)C(=O)NO)cc1` (stereo not drawn) [Example 82, 2-(4-methoxy-benzenesulfonyl)-2-methyl-3-[4-(2-morpholin-4-yl-ethoxy)-phenyl]-propionic hydroxyamide hydrochloride], the inhibition at 1 µM on TACE amounted to 34.5%. Also, the IC50 at MMP 9 (human neutrophil gelatinase B) was found to be 19.4 nM; on MMP 1 (setting [1]), 238 nM.

In the case of `COc1ccc(S(=O)(=O)C(C(=O)NO)C(C)C)cc1` (stereo not drawn) [Example 53, N-Hydroxy-2-(4-methoxy-benzenesulfonyl)-3-methyl-butyramide], the values for the inhibition at 1 µM on TACE and on MMP 9 (human neutrophil gelatinase B) were 52.6% and 27.8%, respectively.

As for `COc1ccc(S(=O)(=O)C(C)(Cc2ccc(OCCN3CCCCC3)cc2)C(=O)NO)cc1` (stereo not drawn) [Example 17, N-Hydroxy-2-(4-methoxy-benzenesulfonyl)-2-methyl-3-[4-(2-piperidin-1-yl-ethoxy)-phenyl]-propionamide], on TACE, the inhibition at 1 µM amounted to 41%. Further, the IC50 at MMP 9 (human neutrophil gelatinase B) is 8.9 nM; at MMP 1 (setting [1]) it was 239 nM.

Regarding `COc1ccc(S(=O)(=O)C2(C(=O)NO)CCN(Cc3ccc(-c4ccccc4)cc3)CC2)cc1` [Example 88, 1-Biphenyl-4-ylmethyl-4-(4-methoxy-benzenesulfonyl)piperidine-4-carboxylic acid hydroxamide], the IC50 was determined as 12.8 nM at MMP 9 and 1330 nM at MMP 1.

Turning to `COc1ccc(S(=O)(=O)C2(C(=O)NO)CCN(Cc3ccc(Br)cc3)CC2)cc1` [Example 90, 1-(4-Bromo-benzyl)-4-(4-methoxy-benzenesulfonyl)-piperidine-4-carboxylic acid hydroxyamide], at MMP 9 (human neutrophil gelatinase B), the IC50 is 10.3 nM.

As for `CCCCCCCCCCCCC(C(=O)NO)S(=O)(=O)c1ccc(OC)cc1` (stereo not drawn) [Example 11, 2-(4-Methoxy-benzenesulfonyl)-tetradecanoic hydroxyamide], on TACE, the IC50 was found to be 942 nM. The inhibition at 1 µM at MMP 1 (setting [1]) was found to be 18.8%.

Turning to `CCCCOc1ccc(S(=O)(=O)C2(C(=O)NO)CCN(Cc3ccc(OC)cc3)CC2)cc1` [Example 104, 4-(4-n-Butoxy-benzenesulfonyl)-1-(4-methoxy-benzyl)-piperidine-4-carboxylic acid hydroxyamide], the figures for the IC50 on TACE and on MMP 13 were 208 nM and 1.4 nM, respectively.

Regarding `CCCCC(C(=O)NO)S(=O)(=O)c1ccc(OC)cc1` (stereo not drawn) [Example 10, 2-(4-Methoxy-benzenesulfonyl)-hexanoic acid hydroxyamide], the results for the inhibition at 1 µM on TACE and on MMP 1 (setting [1]) were 54.8% and 8%, respectively.

For the compound `COc1ccc(S(=O)(=O)C(C)(Cc2ccc(OCCN3CCCCCC3)cc2)C(=O)NO)cc1` (stereo not drawn) [Example 18, 2-[4-(2-Azepan-1-yl-ethoxy)-benzyl]-2-(4-methoxy-benzenesulfonyl)-propionic acid hydroxyamide], the inhibition at 1 µM on TACE stood at 29.2%. Further, the IC50 was determined as 18.9 nM at MMP 9 (human neutrophil gelatinase B) and 540 nM on MMP 1 (setting [1]).

Regarding `CCCCOc1ccc(S(=O)(=O)C2(C(=O)NO)CCN(CCCOc3ccccc3)CC2)cc1` [Example 106, 4-(4-n-Butoxy-benzenesulfonyl)-1-(3-phenoxy-propyl)-piperidine-4-carboxylic acid hydroxyamide], the IC50 amounted to 631 nM at TACE, 5.1 nM on MMP 9 (human neutrophil gelatinase B) and 3790 nM on MMP 1 (setting [1]).

Take `CC(Cc1ccc(OCCN2CCCCC2)cc1)(C(=O)NO)S(=O)(=O)c1cccs1` (stereo not drawn) [Example 45]: the values for the inhibition at 1 µM at TACE, on MMP 9 (human neutrophil gelatinase B) and on MMP 1 (setting [1]) were 20.4%, 48.6% and 49%, respectively.

Turning to `COc1ccc(S(=O)(=O)C2(C(=O)NO)CCN(C3CCCCCCC3)CC2)cc1` [Example 94, 1-Cyclooctyl-4-(4-methoxy-benzenesulfonyl)-piperidine-4-carboxylic acid hydroxyamide], the IC50 was determined as 138 nM at MMP 9 (human neutrophil gelatinase B) and 2640 nM at MMP 1 (setting [1]).

In the case of `COc1ccc(S(=O)(=O)C(CC=C(C)C)(CC=C(C)C)C(=O)NO)cc1` [Example 79, 2-(4-Methoxy-benzenesulfonyl)-5-methyl-2-(3-methyl-but-2-enyl)-hex-4-enoic acid hydroxyamide], the IC50 on TACE worked out at 805 nM; at MMP 9 (human neutrophil gelatinase B) it was 0.54 nM; on MMP 1 (setting [1]), 25 nM.

`CCCCOc1ccc(S(=O)(=O)C(C)(Cc2ccc(OCCN3CCCCC3)cc2)C(=O)NO)cc1` (stereo not drawn) [Example 28, N-Hydroxy-2-(4-n-butoxy-benzenesulfonyl)-2-methyl-3-[4-(2-piperidin-1-yl-ethoxy)-phenyl]-propionamide]: at TACE, the inhibition at 1 µM turned out to be 30.6%. For the same compound, the IC50 at MMP 13 was 2 nM.
